{"source": "patent US11993588B2", "about": "“Crystalline forms of a MAGL inhibitor” (H. Lundbeck A/S, priority 2016, dated 2024)", "format_in_all_cases": "physicochemical", "key": {"7-day stability testing": {"test": "7-day stability testing", "experimental": "Form 2 of Compound 2 was scaled up in two solvents. Material underwent 7-day stability testing and/or aqueous solubility assessment. The 7-day stability testing was conducted as follows. Material was exposed to environments of 40° C./75% RH, ambient light and 80° C. for 7 days and the resulting solids analysed by XRPD to determine if any changes had occurred, and by HPLC to determine purity. The aqueous solubility assessment was conducted as follows. A slurry was created in deionised water (5.1 mg of Form 2 and 300 μL of water) and shaken for ca. 24 hours at ambient temperature (ca. 22° C.). The initial pH and final pH were measured. The resulting mixture was then isolated by centrifuge filtration, and the solution obtained analysed by HPLC to calculate the concentration of material dissolved. Remaining solid was analysed by XRPD to determine if any changes had occurred on slurrying."}, "[1]": {"test": "Gravimetric vapor sorption (GVS)", "conditions": "for hygroscopic nature / weight uptake: GVS; for Post-GVS analysis by XRPD (form change): after GVS sorption/desorption cycle", "experimental": "Approximately 10 mg of sample was placed into a mesh vapour sorption balance pan and loaded into an IGASorp Moisture Sorption Analyser balance by Hiden Analytical. The sample was subjected to a ramping profile from 40-90% relative humidity (RH) at 10% increments, maintaining the sample at each step until a stable weight had been achieved (98% step completion). After completion of the sorption cycle, the sample was dried using the same procedure to 0% RH, and finally taken back to the starting point of 40% RH. The weight change during the sorption/desorption cycles were plotted, allowing for the hygroscopic nature of the sample to be determined."}, "[2]": {"test": "Solvent solubility screen for Compound 1", "conditions": "thermodynamic from solid, crystalline Compound 1 (Form 1), read-out: Approximate Solubility", "experimental": "Ca. 10 mg of crystalline Compound 1 was placed in 32 vials and 5 volume aliquots of the appropriate solvent systems were added to the appropriate vial. Between each addition, the mixture was checked for dissolution and if no dissolution was apparent, the mixture was heated to ca. 40° C. and checked again. This procedure was continued until dissolution was observed or until 100 volumes of solvent had been added. After the addition of 100 volumes, a further 100 volumes were added to samples which had not dissolved to give a total of 200 volumes. If 200 volumes were added without dissolution, the solubility was calculated to be below this point (<5 mg/mL)."}, "[3]": {"test": "Compound 6 polymorph screen", "conditions": "among the three Compound 6 polymorphs", "description": "In a Compound 6 polymorph screen, two additional Compound 6 crystalline forms were identified. Compound 6, Form 2, was isolated from a 95/5 acetone/water slurry and Compound 6, Form 3, was isolated from in a 80/20 dioxane/water mixture."}, "[4]": {"conditions": "ambient light / ambient conditions for 7 days"}}, "note": "Structures can show the parent of a compound that is named as a salt. Where two headings read alike, the source gives them in different places.", "data": [{"smiles": "CS(=O)(=O)O.O=C(OC(C(F)(F)F)C(F)(F)F)N1CCN(Cc2ccc(C(F)(F)F)cc2N2CCCC2)CC1", "note": "[Compound 5, 1,1,1,3,3,3-hexafluoropropan-2-yl 4-(2-(pyrrolidin-1-yl)-4-(trifluoromethyl)benzyl)piperazine-1-carboxylate mesylate salt]", "values": [{"measurement": "HPLC purity after stability testing", "setting": "7-day stability testing; 40° C./75% RH for 7 days", "value": 99.98, "unit": "%"}, {"measurement": "HPLC purity after stability testing", "setting": "7-day stability testing; 80° C. for 7 days", "value": 99.97, "unit": "%"}, {"measurement": "HPLC purity after stability testing", "setting": "7-day stability testing; [4]", "value": 99.95, "unit": "%"}, {"measurement": "hygroscopic nature", "setting": "[1]", "value": "moderately hygroscopic"}, {"measurement": "weight uptake", "setting": "[1]; at 90% RH", "value": 3.5, "unit": "%"}, {"measurement": "weight uptake", "setting": "[1]; up to 70% humidity", "value": 2.8, "unit": "%"}, {"measurement": "Post-GVS analysis by XRPD (form change)", "setting": "[1]", "value": "maintained its form and crystallinity"}]}, {"smiles": "O=C(OC(C(F)(F)F)C(F)(F)F)N1CCN(Cc2ccc(C(F)(F)F)cc2N2CCCC2)CC1", "note": "[Compound 1, 1,1,1,3,3,3-hexafluoropropan-2-yl 4-(2-(pyrrolidin-1-yl)-4-(trifluoromethyl)benzyl)piperazine-1-carboxylate]", "values": [{"measurement": "solubility", "setting": "[2]; aqueous with cosolvent or surfactant or cyclodextrin, 2-Propanol:water (50%)", "value": "< 5", "unit": "mg/mL"}, {"measurement": "solubility", "setting": "[2]; aqueous with cosolvent or surfactant or cyclodextrin, Acetone:water (50%), precipitated after ca. 30 minutes", "value": "> 202", "unit": "mg/mL"}, {"measurement": "solubility", "setting": "[2]; aqueous with cosolvent or surfactant or cyclodextrin, Methanol:water (50%)", "value": "< 5", "unit": "mg/mL"}, {"measurement": "solubility", "setting": "[2]; organic solvent or mixture, 1,4-Dioxane", "value": "> 206", "unit": "mg/mL"}, {"measurement": "solubility", "setting": "[2]; organic solvent or mixture, 1-Butanol", "value": 39, "unit": "mg/mL"}, {"measurement": "solubility", "setting": "[2]; organic solvent or mixture, 2-Ethoxyethanol", "value": 103, "unit": "mg/mL"}, {"measurement": "solubility", "setting": "[2]; organic solvent or mixture, 2-Methyl tetrahydrofuran", "value": "> 200", "unit": "mg/mL"}, {"measurement": "solubility", "setting": "[2]; organic solvent or mixture, 2-Propanol, precipitated after ca. 2 days", "value": 69, "unit": "mg/mL"}, {"measurement": "solubility", "setting": "[2]; organic solvent or mixture, Acetone", "value": "> 202", "unit": "mg/mL"}, {"measurement": "solubility", "setting": "[2]; organic solvent or mixture, Acetonitrile", "value": "> 196", "unit": "mg/mL"}, {"measurement": "solubility", "setting": "[2]; organic solvent or mixture, Anisole", "value": "> 200", "unit": "mg/mL"}, {"measurement": "solubility", "setting": "[2]; organic solvent or mixture, Benzonitrile", "value": "> 214", "unit": "mg/mL"}, {"measurement": "solubility", "setting": "[2]; organic solvent or mixture, Chlorobenzene", "value": 69, "unit": "mg/mL"}, {"measurement": "solubility", "setting": "[2]; organic solvent or mixture, Dichloromethane", "value": "> 198", "unit": "mg/mL"}, {"measurement": "solubility", "setting": "[2]; organic solvent or mixture, Diisopropyl Ether", "value": "> 208", "unit": "mg/mL"}, {"measurement": "solubility", "setting": "[2]; organic solvent or mixture, Dimethylacetamide", "value": "> 204", "unit": "mg/mL"}, {"measurement": "solubility", "setting": "[2]; organic solvent or mixture, Dimethylformamide", "value": "> 204", "unit": "mg/mL"}, {"measurement": "solubility", "setting": "[2]; organic solvent or mixture, Dimethylsulfoxide", "value": 50, "unit": "mg/mL"}, {"measurement": "solubility", "setting": "[2]; organic solvent or mixture, Ethanol", "value": 67, "unit": "mg/mL"}, {"measurement": "solubility", "setting": "[2]; organic solvent or mixture, Ethyl acetate", "value": "> 198", "unit": "mg/mL"}, {"measurement": "solubility", "setting": "[2]; organic solvent or mixture, Heptane", "value": 49, "unit": "mg/mL"}, {"measurement": "solubility", "setting": "[2]; organic solvent or mixture, Hexane", "value": 49, "unit": "mg/mL"}, {"measurement": "solubility", "setting": "[2]; organic solvent or mixture, Isopropyl acetate", "value": "> 198", "unit": "mg/mL"}, {"measurement": "solubility", "setting": "[2]; organic solvent or mixture, Methanol", "value": 72, "unit": "mg/mL"}, {"measurement": "solubility", "setting": "[2]; organic solvent or mixture, Methyl isobutyl ketone", "value": "> 196", "unit": "mg/mL"}, {"measurement": "solubility", "setting": "[2]; organic solvent or mixture, Methylethyl ketone", "value": "> 202", "unit": "mg/mL"}, {"measurement": "solubility", "setting": "[2]; organic solvent or mixture, N-Methyl-2-pyrrolidone", "value": "> 198", "unit": "mg/mL"}, {"measurement": "solubility", "setting": "[2]; organic solvent or mixture, Tetrahydrofuran", "value": "> 198", "unit": "mg/mL"}, {"measurement": "solubility", "setting": "[2]; organic solvent or mixture, Toluene", "value": "> 202", "unit": "mg/mL"}, {"measurement": "solubility", "setting": "[2]; organic solvent or mixture, tert-Amyl alcohol", "value": 69, "unit": "mg/mL"}, {"measurement": "solubility", "setting": "[2]; organic solvent or mixture, tert-Butylmethyl ether", "value": "> 196", "unit": "mg/mL"}, {"measurement": "solubility", "setting": "[2]; Water", "value": "< 5", "unit": "mg/mL"}]}, {"smiles": "O=C(OC(C(F)(F)F)C(F)(F)F)N1CCN(Cc2ccc(C(F)(F)F)cc2N2CCCC2)CC1", "note": "[Compound 6, 1,1,1,3,3,3-hexafluoropropan-2-yl 4-(2-(pyrrolidin-1-yl)-4-(trifluoromethyl)benzyl)piperazine-1-carboxylate fumarate salt]", "values": [{"measurement": "HPLC purity after stability testing", "setting": "7-day stability testing; 40° C./75% RH for 7 days", "value": 99.9, "unit": "%"}, {"measurement": "HPLC purity after stability testing", "setting": "7-day stability testing; 80° C. for 7 days", "value": 99.9, "unit": "%"}, {"measurement": "HPLC purity after stability testing", "setting": "7-day stability testing; [4]", "value": 99.9, "unit": "%"}, {"measurement": "relative thermodynamic stability of polymorphs", "setting": "[3]", "value": "thermodynamically most stable form"}]}, {"smiles": "Cl.Cl.O=C(OC(C(F)(F)F)C(F)(F)F)N1CCN(Cc2ccc(C(F)(F)F)cc2N2CCCC2)CC1", "note": "[Compound 3, 1,1,1,3,3,3-hexafluoropropan-2-yl 4-(2-(pyrrolidin-1-yl)-4-(trifluoromethyl)benzyl)piperazine-1-carboxylate bis-HCl salt]", "values": [{"measurement": "hygroscopic nature", "setting": "[1]", "value": "slightly hygroscopic"}, {"measurement": "weight uptake", "setting": "[1]; at 90% RH", "value": 1.4, "unit": "%"}, {"measurement": "Post-GVS analysis by XRPD (form change)", "setting": "[1]", "value": "remain unchanged"}]}]}
